Legend:
FLT3 (ITD, D835V) = target: T1, FLT3 (ITD, D835V) (Homo sapiens, UniProt P36888, D835V, form not given); assay: KINOMEscan KdElect competitive binding assay, dual mutant FLT3 (ITD, D835V); details: tosylate salt; read-out: Kd, FLT3 (ITD, D835V) double mutant
T1 construct: fused on or other part: DNA tag / T7 phage display tag for qPCR detection
T1 sequence (P36888 1-993 D835V): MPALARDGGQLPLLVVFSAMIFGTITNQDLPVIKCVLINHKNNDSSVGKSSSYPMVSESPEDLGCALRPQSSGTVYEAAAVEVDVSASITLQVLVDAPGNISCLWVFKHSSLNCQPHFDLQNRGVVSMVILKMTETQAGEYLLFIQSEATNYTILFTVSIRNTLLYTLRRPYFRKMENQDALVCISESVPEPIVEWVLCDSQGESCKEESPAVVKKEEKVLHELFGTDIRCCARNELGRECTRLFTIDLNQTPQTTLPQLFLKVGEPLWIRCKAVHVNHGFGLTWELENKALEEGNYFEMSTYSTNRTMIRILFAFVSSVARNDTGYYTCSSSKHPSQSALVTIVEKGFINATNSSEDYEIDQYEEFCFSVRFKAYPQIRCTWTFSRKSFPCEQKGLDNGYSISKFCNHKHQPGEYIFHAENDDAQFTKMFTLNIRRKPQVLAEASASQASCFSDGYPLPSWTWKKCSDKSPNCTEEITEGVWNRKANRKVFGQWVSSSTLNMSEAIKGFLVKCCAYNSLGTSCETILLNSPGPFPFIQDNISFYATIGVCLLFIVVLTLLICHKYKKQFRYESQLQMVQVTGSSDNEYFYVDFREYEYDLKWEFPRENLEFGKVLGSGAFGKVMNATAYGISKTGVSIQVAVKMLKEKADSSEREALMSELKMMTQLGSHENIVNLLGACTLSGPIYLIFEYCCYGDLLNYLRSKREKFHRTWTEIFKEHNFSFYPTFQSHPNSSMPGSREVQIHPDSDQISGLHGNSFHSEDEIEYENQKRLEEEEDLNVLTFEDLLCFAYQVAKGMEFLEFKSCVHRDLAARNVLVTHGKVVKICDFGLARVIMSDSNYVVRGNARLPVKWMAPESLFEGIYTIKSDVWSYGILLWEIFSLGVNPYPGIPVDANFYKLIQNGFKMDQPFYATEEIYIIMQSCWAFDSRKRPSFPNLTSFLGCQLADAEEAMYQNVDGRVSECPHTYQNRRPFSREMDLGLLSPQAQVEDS
Excerpt: Competitive binding assay.
The lysates were then centrifuged and filtered.

FLT3 TKD mutation D835Y = target: T2, FLT3 TKD mutation D835Y (Homo sapiens, UniProt P36888, D835Y); assay: Direct enzyme phosphorylation assay (Millipore Kinase IC50 Profiler), FLT3 D835Y; type: biochemical; details: tosylate salt; n=2; read-out: IC50 against the FLT3 TKD mutation D835Y
T2 construct: purchased Millipore
T2 sequence (P36888 27-993 D835Y): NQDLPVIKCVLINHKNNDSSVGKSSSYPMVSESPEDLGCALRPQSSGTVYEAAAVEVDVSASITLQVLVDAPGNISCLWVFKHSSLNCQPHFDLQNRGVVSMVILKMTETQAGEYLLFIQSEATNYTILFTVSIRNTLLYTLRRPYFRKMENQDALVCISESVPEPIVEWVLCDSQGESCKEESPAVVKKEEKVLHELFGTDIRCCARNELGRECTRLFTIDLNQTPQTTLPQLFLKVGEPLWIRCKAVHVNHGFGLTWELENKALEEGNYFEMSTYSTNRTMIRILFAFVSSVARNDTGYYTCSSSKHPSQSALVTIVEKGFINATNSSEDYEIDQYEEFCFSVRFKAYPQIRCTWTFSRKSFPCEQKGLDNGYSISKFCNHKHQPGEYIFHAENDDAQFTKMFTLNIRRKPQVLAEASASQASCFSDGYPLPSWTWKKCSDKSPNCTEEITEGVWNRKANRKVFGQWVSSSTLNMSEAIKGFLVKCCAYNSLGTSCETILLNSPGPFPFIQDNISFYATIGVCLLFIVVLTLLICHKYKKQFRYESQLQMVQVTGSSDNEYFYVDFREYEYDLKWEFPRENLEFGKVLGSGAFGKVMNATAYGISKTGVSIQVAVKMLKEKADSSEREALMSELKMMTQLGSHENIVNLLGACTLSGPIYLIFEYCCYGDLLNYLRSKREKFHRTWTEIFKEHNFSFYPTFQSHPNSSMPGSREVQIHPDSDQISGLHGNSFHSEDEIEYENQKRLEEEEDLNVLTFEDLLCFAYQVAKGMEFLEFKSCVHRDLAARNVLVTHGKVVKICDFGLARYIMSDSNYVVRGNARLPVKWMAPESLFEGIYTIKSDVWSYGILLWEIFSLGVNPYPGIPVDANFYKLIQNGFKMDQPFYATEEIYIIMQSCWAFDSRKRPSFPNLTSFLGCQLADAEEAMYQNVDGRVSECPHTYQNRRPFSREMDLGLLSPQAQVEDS
Description: Direct enzyme phosphorylation assay. The Millipore Kinase IC50 Profiler assay was used to screen the present invention against a panel of normal FLT3 and mutated FLT3 kinases. For assays of both kinases, the FLT3 enzyme was incubated with 8 mM of 3-(N-morpholino)propanesulfonic acid (MOPS) at a pH of 7.0, 0.2 mM Ethylenediaminetetraacetic acid (EDTA), 50 uM, a synthetic Abl peptide substrate […] (SEQ ID NO: 1), 10 mM MgAcetate and [γ-^33P-ATP]. The reaction was initiated by the addition of MgATp mix. The reaction mixture was incubated for 40 minutes at room temperature and halted by the addition of 3% phosphoric acid solution. 10 uL of the reaction solution was spotted on P30 filtermat and washed three times in 75 mM phosphoric acid for 5 minutes and then once in methanol prior to drying and scintillation counting. The scintillation values for each replicate, including positive and negative controls, were analyzed using XLFit version 5.1 to determine the IC50 values for the present invention against normal and mutated FLT3.

COCCOc1ccc2c(c1)ncn2-c1ccc2cccc(N3CCC(N)CC3)c2n1 [CP-673,451]
Kd (FLT3 (ITD, D835V)): 0.015 nM
IC50 (FLT3 TKD mutation D835Y): 3 nM

From patent publication US10463658B2, “Method of inhibiting FLT3 kinase” (AROG Pharmaceuticals, LLC, priority 2013, dated 2019)
